Where a SMILES comes first, the peptide text is derived from it.
Tests used:
[1] = test system: COVID-19-associated severe ARDS; conditions: data of the 3 patients of example 2
Source text: Example 2: Critically ill patients suffering from a COVID-19 infection in a second university care centre.
To this date, we treated three patients in individualized therapeutic attempts with FX06 in the second university care center.
All three patients were diagnosed with SARS-CoV-2 pneumonia resulting in severe acute respiratory distress syndrome (ARDS) and required extracorporeal membrane oxygenation (ECMO) therapy upon or early during their treatment in our facility. All patients were referred to our hospital from basic care providers due to the severity of their conditions. All patients required ECMO therapy at the time of FX06 treatment.
FX06 400 mg was administered once per day after informed consent by the close relative.

[2] = human, in vivo; cited from earlier work

Which results are given for CC[C@H](C)[C@H](NC(=O)[C@@H]1CCCN1C(=O)[C@@H]1CCCN1C(=O)[C@@H]1CCCN1C(=O)[C@H](C)NC(=O)[C@@H]1CCCN1C(=O)[C@H](CCCNC(=N)N)NC(=O)[C@H](CC(C)C)NC(=O)[C@H](CO)NC(=O)[C@@H]1CCCN1C(=O)[C@H](C)NC(=O)[C@H](CCC(=O)O)NC(=O)[C@H](CCC(=O)O)NC(=O)[C@H](CCCNC(=N)N)NC(=O)[C@H](CCCCN)NC(=O)[C@H](CCCCN)NC(=O)[C@H](CC(=O)O)NC(=O)[C@H](CC(C)C)NC(=O)[C@@H]1CCCN1C(=O)[C@H](CCCNC(=N)N)NC(=O)[C@H](Cc1c[nH]cn1)NC(=O)CN)C(=O)N[C@@H](CO)C(=O)NCC(=O)NCC(=O)NCC(=O)N[C@@H](Cc1ccc(O)cc1)C(=O)N[C@@H](CCCNC(=N)N)C(=O)O [FX06] (H-GHRPLDKKREEAPSLRPAPPPISGGGYR-OH)?
safety in severe ARDS [1]: safe to use; tolerability / safety profile in clinical trials [2]: well tolerated with a benign safety profile

— patent US20230293640A1, “COMPOUNDS FOR THE TREATMENT OF ENDOTHELIITIS IN CONTEXT OF VIRALLY CAUSED DISEASES” (F4 PHARMA GMBH, priority 2020, published 2023)
